This note sets out measurements from PubChem BioAssay AID1996.

The structures appear in SMILES notation. In brackets after ≈: the same amount, converted by molar mass.

The conditions of this data set: buffer; pH 7.4; 200.0 µM.
Compound `Cc1cccc(NC(=O)CSc2n[nH]c(-c3cccnc3)n2)c1` registered a solubility (kinetic) of over 48.8 µg/mL.
The figure for `CC(NC(=O)c1ccc(Br)s1)c1ccncc1` (stereo unspecified) is over 46.7 µg/mL; for `O=C(NC(=S)Nc1cccnc1)c1cccs1` it is 10.4 µg/mL (≈ 39.5 µM).
As for `CC(C)c1ccc(C(=O)NN2CCOCC2)cc1`, the solubility (kinetic) is over 37.2 µg/mL.
Compound `Cc1ccc([N+](=O)[O-])cc1NC(=O)/C=C/C(=O)O` had a kinetic solubility of over 37.5 µg/mL.
Take `CC(=O)c1ccc(NC(=O)C(C)OC(=O)/C=C/c2ccco2)cc1` (stereo unspecified): the solubility (kinetic) was 21.7 µg/mL (≈ 66.3 µM).
As for `Cc1cccc(NC(=O)c2ccc([N+](=O)[O-])s2)n1`, the solubility (kinetic) amounted to 9.5 µg/mL (≈ 36.1 µM).
With `Cc1[nH]nc(SCC(=O)N2CCCCCC2)c1[N+](=O)[O-]`, the solubility (kinetic) was over 44.8 µg/mL.
Take `Cc1cc(C(=O)N2CCCC(C(=O)c3cc(F)ccc3F)C2)c(C)o1` (stereo unspecified): the solubility (kinetic) was found to be 42.5 µg/mL (≈ 122 µM).
Under `Cc1ccc(N2C(=O)CC(NCC3CCCO3)C2=O)cc1` (stereo unspecified) stands over 43.3 µg/mL; under `Cc1nc(NC(=O)CCc2ccccc2)sc1C`, 18.7 µg/mL (≈ 71.8 µM); under `O=C(O/N=C/c1ccc(Cl)cc1)C1CCCCC1`, 2.4 µg/mL (≈ 9.03 µM).
Under `CC(C)(C)c1csc(CS(=O)(=O)c2ccccn2)n1` stands over 44.5 µg/mL; under `COc1cc(CN2CCCCCC2)cc(OC)c1`, 30.6 µg/mL (≈ 123 µM); under `S=C(Nc1ccccc1)Nc1ccc(Cl)cn1`, 2.1 µg/mL (≈ 7.96 µM).
Compound `O=C(CCN1C(=O)c2ccccc2C1=O)NCc1ccc(F)cc1` gave a kinetic solubility of over 48.9 µg/mL.
The compound `COc1ccccc1CC(=O)Nc1sc2c(c1C(N)=O)CCCC2` had a kinetic solubility of 2 µg/mL (≈ 5.81 µM).
Consider `CCOc1ccc(NC(=O)C(CC(=O)O)Cc2ccc(C)cc2)cc1` (stereo unspecified), for which the kinetic solubility was over 51.2 µg/mL.
The compound `CN(C(=O)c1ccc(F)cc1)c1ccc(OCC(=O)Nc2ccccc2C(=O)O)cc1` registered a solubility (kinetic) of over 63.4 µg/mL.
As to `COC(=O)CCN(C(=O)c1ccc(Cl)c([N+](=O)[O-])c1)c1ccccn1`, the kinetic solubility was over 54.6 µg/mL.
Under `CC1CCCCC1NC(=O)Cn1cnc2sccc2c1=O` (stereo unspecified) stands over 45.8 µg/mL; under `O=C(OCc1cccc([N+](=O)[O-])c1)c1cc2ccccc2oc1=O`, under 0.7 µg/mL; under `CC1(C)CC(=O)C=C(NCc2ccc(C(=O)O)cc2)C1`, 37.6 µg/mL (≈ 138 µM).
In the case of `O=S(=O)(Nc1ccc(Cl)cn1)c1cccs1`, the solubility (kinetic) is over 41.2 µg/mL.
The compound `O=C1Nc2ccccc2C1=Nc1ccc(F)cc1` had a solubility (kinetic) of over 36 µg/mL.
The compound `CCCCCCOc1ccc(C(=O)NCCCn2ccnc2)cc1` gave a solubility (kinetic) of over 49.4 µg/mL.
In the case of `Cc1ccc(C2CN(C)CC2C(=O)c2ccc(F)cc2)cc1` (stereo unspecified), the kinetic solubility amounted to 35.8 µg/mL (≈ 120 µM).
Take `CN(C)C(=S)Nc1ccc(Br)cc1Cl`: the solubility (kinetic) was 23.4 µg/mL (≈ 79.7 µM).
In the case of `CN(C)S(=O)(=O)N1CCN(c2ccc([N+](=O)[O-])c(NC3CC3)c2)CC1`, the solubility (kinetic) came out at 0.6 µg/mL (≈ 1.62 µM).
Take `C/C(=N\NC(=O)c1cccnc1)c1ccccc1`: the solubility (kinetic) was over 35.9 µg/mL.
Compound `Cc1ccccc1CN(c1ccc(C(=O)N2CCN(C)CC2)cc1)S(C)(=O)=O` showed a solubility (kinetic) of over 60.2 µg/mL.
Turning to `CC(=O)N(C)c1ccc(N=Cc2cc3c(cc2[N+](=O)[O-])OCO3)cc1`, the kinetic solubility amounted to 44.1 µg/mL (≈ 129 µM).
Under `CSc1ncccc1C(=O)OCC(=O)N1CCc2ccccc21` stands 2 µg/mL (≈ 6.09 µM); under `O=C(O)CC1(CC(=O)Nc2ccc(F)c(Cl)c2)CCCCC1`, over 49.2 µg/mL.
On to `Cc1nc(C)c(C(=O)OCC(=O)N(C)c2ccccc2)s1`, for which the kinetic solubility was over 45.7 µg/mL.
Compound `CC(Cc1c[nH]c2ccccc12)NC(N)=O` (stereo unspecified) had a solubility (kinetic) of over 32.6 µg/mL.
In turn, `CCOc1ccc(C2C(C#N)=C(N)Oc3cc(C)[nH]c(=O)c32)cc1OC` (stereo unspecified) gave a kinetic solubility of over 53 µg/mL.
`Cc1ccc(C(=O)O)cc1NC(=O)Nc1cccc2ccccc12` displayed a solubility (kinetic) of over 48.1 µg/mL.
In the case of `CCCN1CCC(NC2CCC(O)CC2)CC1` (stereo unspecified), the solubility (kinetic) came to 27.1 µg/mL (≈ 113 µM).
For the compound `Cc1cc(C)c2c(c1)C1(OCCO1)C(=O)N2`, the solubility (kinetic) amounted to 16.1 µg/mL (≈ 73.4 µM).
The compound `O=C(N/N=C/c1ccccc1Cl)C1CC1` returned a solubility (kinetic) of over 33.4 µg/mL.
The figure for `O=C(Cn1cc([N+](=O)[O-])ccc1=O)NCc1ccc(Cl)cc1Cl` is 1.9 µg/mL (≈ 5.33 µM); for `CC(C)(C)NC(=O)C(=O)NNC(=O)c1ccco1` it is over 38 µg/mL.
The compound `Cc1ccc(Nc2c(F)c(F)c(F)c(F)c2C(=O)O)c(C)c1` returned a solubility (kinetic) of 40.4 µg/mL (≈ 129 µM).
Under `Cc1ccc(S(=O)(=O)CCC(=O)OC(C)c2nnc(-c3cccs3)o2)cc1` (stereo unspecified) stands over 61 µg/mL.
On to `Cc1ccccc1-n1ccnc1SCC(=O)NC1CCCC1`, for which the kinetic solubility was over 47.3 µg/mL.
The figure for `O=c1c2ccccc2nc(Cc2ccccc2)n1-c1ccccc1` is 39.5 µg/mL (≈ 126 µM).
With `CCC(C)[C@H](NC(=O)NC1CCCc2ccccc21)C(=O)OC` (stereo partly specified), the solubility (kinetic) was 22 µg/mL (≈ 69.1 µM).
Under `C[C@@H]1NC(=O)N[C@@H]1CCCCCC(=O)O` stands over 32.1 µg/mL.
`O=C(CN1C(=O)CCC1=O)NC(=O)NC1CCCC1` registered a kinetic solubility of over 40.1 µg/mL.
Take `O=C1CSC(c2cccc([N+](=O)[O-])c2)N1C1CC2CCC1C2` (stereo unspecified): the kinetic solubility came to 11.2 µg/mL (≈ 35.2 µM).

One may read the kinetic solubility as solubility judged after dilution from a stock solution rather than from solid.
